Source: patent US20230000876A1, “TREATING CANCERS WITH A CYCLIN-DEPENDENT KINASE INHIBITOR” (Nuvation Bio Inc., priority 2021, published 2023)

Columns and labels:
[1] = test system: VCap prostate cancer; assay: Non-castrated VCap prostate cancer model; type: in vivo, male CB17/Scid mice; conditions: Group 7: Abiraterone 350 mg/kg p.o. QD * 26 days
Procedure: Compound (I), enzalutamide, and abiraterone were tested in non-castrated VCap prostate cancer model in male CB17/Scid mice.
All treatment groups reduced mean tumor volume.

[2] = test system: xMDA-MB-361 breast tumor; assay: xMDA-MB-361 breast tumor model (ER-positive/HER2-positive); type: in vivo, female BALB/c nude mice; conditions: Group 3: Tucatinib 60 mg/kg PO QD*42 days
Procedure: Trastuzumab, tucatinib, Compound (I), and fulvestrant were tested in a xMDA-MB-361 breast tumor model (ER-positive/HER2-positive) on female BALB/c nude mice.

[3] = test system: xBT474 breast tumor; assay: xBT474 breast tumor model (ER-negative/HER2-positive); conditions: Group 3: Tucatinib 25 mg/kg PO QD*28 days

Compound: C[C@]12CC[C@H](O)CC1=CC[C@@H]1[C@@H]2CC[C@]2(C)C(c3cccnc3)=CC[C@@H]12 [Abiraterone, abiraterone, reference compound]
- Tumor volume (mean ± SEM) ([1]; Day 0): 171.7 ± 5.9 mm^3
- Tumor volume (mean ± SEM) ([1]; Day 4): 278 ± 22.9 mm^3
- Tumor volume (mean ± SEM) ([1]; Day 7): 365.9 ± 35.9 mm^3
- Tumor volume (mean ± SEM) ([1]; Day 11): 582.6 ± 43.3 mm^3
- Tumor volume (mean ± SEM) ([1]; Day 14): 762.2 ± 73.7 mm^3
- Tumor volume (mean ± SEM) ([1]; Day 18): 985.6 ± 86.7 mm^3
- Tumor volume (mean ± SEM) ([1]; Day 21): 1056.1 ± 83.2 mm^3
- Tumor volume (mean ± SEM) ([1]; Day 25): 1184.9 ± 82.6 mm^3

Compound: Cc1cc(Nc2ncnc3ccc(NC4=NC(C)(C)CO4)cc23)ccc1Oc1ccn2ncnc2c1 [Tucatinib]
- Tumor volume (mean ± SEM) ([2]; Day 0): 157 ± 11 mm^3
- Tumor volume (mean ± SEM) ([2]; Day 3): 148 ± 11 mm^3
- Tumor volume (mean ± SEM) ([2]; Day 7): 156 ± 20 mm^3
- Tumor volume (mean ± SEM) ([2]; Day 10): 219 ± 30 mm^3
- Tumor volume (mean ± SEM) ([2]; Day 14): 408 ± 59 mm^3
- Tumor volume (mean ± SEM) ([2]; Day 17): 658 ± 112 mm^3
- Tumor volume (mean ± SEM) ([2]; Day 21): 970 ± 206 mm^3
- Tumor volume (mean ± SEM) ([2]; Day 24): 1185 ± 222 mm^3
- Tumor volume (mean ± SEM) ([2]; Day 28): 1496 ± 250 mm^3
- Tumor volume (mean ± SEM) ([2]; Day 31): 1707 ± 309 mm^3
- Tumor volume (mean ± SEM) ([2]; Day 35): 1580 ± 240 mm^3
- Tumor volume (mean ± SEM) ([2]; Day 38): 1675 ± 283 mm^3
- Tumor volume (mean ± SEM) ([2]; Day 42): 1670 ± 344 mm^3
- Tumor volume (mean ± SEM) ([3]; Day 0): 146 ± 10 mm^3
- Tumor volume (mean ± SEM) ([3]; Day 4): 177 ± 11 mm^3
- Tumor volume (mean ± SEM) ([3]; Day 7): 199 ± 19 mm^3
- Tumor volume (mean ± SEM) ([3]; Day 11): 168 ± 16 mm^3
- Tumor volume (mean ± SEM) ([3]; Day 14): 169 ± 15 mm^3
- Tumor volume (mean ± SEM) ([3]; Day 18): 234 ± 28 mm^3
- Tumor volume (mean ± SEM) ([3]; Day 21): 288 ± 35 mm^3
- Tumor volume (mean ± SEM) ([3]; Day 25): 341 ± 47 mm^3
- Tumor volume (mean ± SEM) ([3]; Day 28): 397 ± 68 mm^3
- Tumor volume (mean ± SEM) ([3]; Day 32): 406 ± 96 mm^3
- Tumor volume (mean ± SEM) ([3]; Day 35): 488 ± 112 mm^3
- Tumor volume (mean ± SEM) ([3]; Day 39): 420 ± 91 mm^3
- Tumor volume (mean ± SEM) ([3]; Day 42): 431 ± 89 mm^3
- Tumor volume (mean ± SEM) ([3]; Day 46): 421 ± 81 mm^3
